Values joined by “and” are separate entries in the source; they are usually repeats but may differ in a detail not shown here. Identical values can stand only once. “Also recorded” adds a separate entry of the source.

The test system of assay [1] is MRSA. Put plainly: MRSA/antimicrobial potentiation Experiment 4: CFU with or without methicillin, penicillin G or erythromycin, groups A4 to F4. Type of assay: cell-based, Staphylococcus aureus. Particulars: for Laser Effect (+Drug): ratio of AVG Exp with drug to Cont with drug; for Drug Effect / Fold increase in antibiotic sensitivity: 0.5 μg/ml penicillin G; for Drug Effect: ratio of AVG with drug to without drug; for AVG (CFU) / CFU/ml / CFU: agar with 0.5 μg/ml penicillin G.
Experimental: Two different laser dosages based on an effective dose established in previous experiments were used to treat a saline-suspension of logarithmically growing MRSA, labeled A4 to F4.
After 24 hrs of growth at 37° C. colonies were counted.

Assay [2] relates to MRSA. Put plainly: MRSA CFU counts on agar with trimethoprim or erythromycin after sub-lethal NIMELS laser (Example VIII). Format: cell-based, Staphylococcus aureus. Conditions: plates B-4 1 to 5. From the text:
The following illustrates the general antibacterial methods according to the invention, using a MRSA model for the in vitro Experiments V and VIII-XII.
a) μ1 is sub-lethal dosimetry from the NIMEL laser system on MRSA as a control and;

The test system of assay [3] is MRSA colonization in the nares. Put plainly: Human study Part One: nasal colonization of MRSA, NOVEON laser alone, with H2O2 or with topical erythromycin. Format: in vivo, Staphylococcus aureus. Conditions: for MRSA Average: per patient, mean of triplicate plates, all arms with NOVEON laser. Here is the method:
(§1) This investigational protocol was an open-label study of subjects who are colonized with MRSA in the nares (nostril). The study was done in two parts.
(§2) In this human study, three arms were produced. […] This was done on day 1 and again on day three; and Arm #3: ⅓ of the subjects were treated with the laser and then a topical antibiotic three times a day for five days. Prior to enrollment in this study, prospective subjects met all of the following criteria: age≧18 years and ≦70 years of age; previous positive MRSA culture; negative urine pregnancy test or post-menopausal for one year; willing to comply with study requirements, including return visits and self-application of topical antibiotics; and willing to provide informed consent to participate. Prospective subjects were excluded from this study if any of the following criteria were met: pregnancy; patients who are severely immunocompromised (such as may occur in AIDS, renal transplant regimens, immunosuppressed states consequent to malignancy or agents used in rendering oncologic care, or who suffer from end stage renal disease); diabetic patients; allergy to antimicrobials being used in the study (group 3).
(§3) All participants underwent an initial quantitative assessment for nasal carriage of S. aureus, during their first visit. Each participant had the anterior nares (each nostril) sampled for culture with a circular movement (three rotations on each side) of a sterile wood applicator plain Rayon® tipped swab in each nostril and placed in a labeled tube. 2 ml of room temp phosphate buffered saline was placed in the tube after the removal of the swab (to completely cover the swab in the tube). Each swab was then placed back in the tube and the tube was then vortexed for 15 seconds to disperse isolates of MRSA and/or MSSA into the PBS solution. Aliquots of PBS from the tube were plated in the following manner: 100 μl from each tube was lawn plated in triplicate (3×) on selective Chromogenic MRSA And MSSA agar. Plates were placed in incubator within 30 minutes of the plating procedure, and colonies were counted manually, and recorded 18 hrs after plating.
(§4) On day one of the study, all subjects underwent this exact procedure in arms 1 and 2 of the study two minutes before the laser procedure. They again were sampled in the same manner 2 minutes after the laser procedure. In the third arm of the study, they were swabbed two minutes before the procedure and the first antibiotic administration was completed after the laser therapy. The post/laser swab sample was taken for this arm 20 min later.
(§5) On day three of the study, all subjects from arms one two and three underwent the exact same procedures as day 1 of the study.
(§6) On day five all subjects from all arms underwent just one swabbing per nostril with the exact same sampling procedure one time.
(§7) 3% OTC hydrogen peroxide was applied to a cotton pledget for application to the subject prior to irradiation. This was inserted in the nose for 120 seconds and then removed. The subjects were then given doses of phototherapeutic near infrared radiation as described.
(§8) The subjects were first given doses of phototherapeutic near infrared radiation as described. […] The swab was inserted approximately 1 cm in to the anterior nares and rotated 360 degrees several times and removed. Patients were instructed to perform the exact application procedure 3 times a day for the remaining 5 days.
(§9) The NOVEON™ laser was used for two (2) six-minute treatments in each nostril on day (1) and day (3) of the study.
(§10) The laser was calibrated before the first treatment of the day. Intermittent temperature testing of the treatment site was performed on each subject using a noncontact infrared thermometer (Raytek Minitemp), 30-60 second intervals. If a temperature of 110 F degrees was reached, or the patient complained of pain, the laser treatment was interrupted and only resumed when the patient was comfortable.

The test system of assay [4] is MSSA colonies in the nares. Put plainly: Human study Part One: nasal colonization of MSSA, NOVEON laser alone, with H2O2 or with topical erythromycin. Type of assay: in vivo, Staphylococcus aureus. Conditions: per patient, mean of triplicate plates, all arms with NOVEON laser. How it is done: as §1, §2, §3, §4, §5, §6, §7, §8, §9, §10
Setting [5] is: Initial Analysis, Post-treatment swab, left nostril.
[6] abbreviates: Initial Analysis, Post-treatment swab, right nostril.
[7] abbreviates: Initial Analysis, Pre swab, left nostril.
Where [8] appears, read: Initial Analysis, Pre swab, right nostril.
Where [9] appears, read: Second Analysis, Post-treatment swab, left nostril.
Setting [10] is: Second Analysis, Post-treatment swab, right nostril.
Where [11] appears, read: Second Analysis, Pre swab, left nostril.
[12] abbreviates: Second Analysis, Pre swab, right nostril.
The mark [13] stands for this setting: Third Analysis, Swab, left nostril.
Where [14] appears, read: Third Analysis, Swab, right nostril.

In the case of Penicillin, the “Laser Effect (+Drug)” value stood at 0.28 with MRSA [1] (Group C4, 0.5 μg/ml penicillin G) and 0.18 with MRSA [1] (Group D4, 0.5 μg/ml penicillin G). The “Drug Effect” value in the assay on MRSA [1] (Group C4, Cont (no laser)) was found to be 0.75; in the assay on MRSA [1] (Group C4, Exp (laser treated)) it was 0.34; in the assay with MRSA [1] (Group D4, Cont (no laser)), 1.07; in the assay on MRSA [1] (Group D4, Exp (laser treated)), 0.31. Moreover, the “AVG (CFU)” value in the assay on MRSA [1] (Group C4, Cont (no laser)) is 108.4 CFU; in the assay with MRSA [1] (Group C4, Exp (laser treated)) it was 30.4 CFU; in the assay on MRSA [1] (Group D4, Cont (no laser)), 132.8 CFU; with MRSA [1] (Group D4, Exp (laser treated)), 23.8 CFU. Also, the CFU/ml with MRSA [1] (Group C4, Cont (no laser)) is recorded as 3.25E+08 CFU/ml; in the assay with MRSA [1] (Group C4, Exp (laser treated)), 9.12E+07 CFU/ml; in the assay on MRSA [1] (Group D4, Cont (no laser)), 3.98E+08 CFU/ml; in the assay on MRSA [1] (Group D4, Exp (laser treated)), 7.14E+07 CFU/ml. The CFU in the assay on MRSA [1] (Group C4, Cont (no laser), replicate plates 1-5, 24 hrs 37° C.) was 106 CFU and 99 CFU and 102 CFU and 113 CFU and 122 CFU; in the assay with MRSA [1] (Group C4, Exp (laser treated), replicate plates 1-5) it was 25 CFU and 33 CFU (2×) and 19 CFU and 42 CFU; in the assay with MRSA [1] (Group D4, Cont (no laser), replicate plates 1-5, 24 hrs 37° C.) it was 101 CFU and 111 CFU and 138 CFU and 132 CFU and 182 CFU; with MRSA [1] (Group D4, Exp (laser treated), replicate plates 1-5), 14 CFU and 23 CFU and 22 CFU and 29 CFU and 31 CFU. Moreover, the “Fold increase in antibiotic sensitivity” value was found to be 2.21 in the assay with MRSA [1] (grouping C4) and 3.45 with MRSA [1] (grouping D4). Also, the “synergy or potentiation with NIMELS in growth inhibition of MRSA colonies (in words)” value in the assay with MRSA [1] (sub-lethal NIMELS dosimetry, bar chart figure) is reported as “synergistic effects; also recorded: potentiated by sub-lethal NIMELS dosimetry”. Moreover, the “reversal of MRSA resistance in vitro by dual wavelength NOVEON laser (in words)” value in the assay with MRSA [1] (temperature levels not lethal to the organism) is on record as “successful reversal of MRSA resistance”.
In the case of `COc1cc(Cc2cnc(N)nc2N)cc(OC)c1OC` [Trimethoprim], the “MRSA colony count, CONTROL (no laser), trimeth 2 ug/ml” value with MRSA [2] (no laser, agar with trimethoprim 2 ug/ml) is 145 and 213 and 198 and 240 and 220. Further, the “MRSA colony count, EXPERIMENTAL, trimeth 2 ug/ml” value in the assay on MRSA [2] (sub-lethal NIMELS laser, then plated on agar with trimethoprim 2 ug/ml) was 100 and 110.
As for `OO` [Peroxide], the “MRSA Average” value in assay [3] (setting [5]) is 0 CFU (2×) and 22 CFU and 1 CFU; in assay [3] (setting [6]), 0 CFU (2×) and 455 CFU and 2752 CFU; in assay [3] (setting [7]), 0 CFU (2×) and 63 CFU and 4 CFU; in assay [3] (setting [8]), 0 CFU (2×) and 30 CFU and 4032 CFU; in assay [3] (setting [9]), 0 CFU (3×) and 12 CFU; in assay [3] (setting [10]), 0 CFU (2×) and 114 CFU and 3347 CFU. Also, the “MRSA Average” value in assay [3] (setting [11]) was 0 CFU (2×) and 180 CFU and 17 CFU; in assay [3] (setting [12]) it was 0 CFU (2×) and 90 CFU and 3099 CFU; in assay [3] (setting [13]), 0 CFU (3×) and 827 CFU; in assay [3] (setting [14]), 0 CFU (2×) and 563 CFU and 3648 CFU. In addition, the “s. aureus Average” value was 0 CFU (2×) and 20 CFU and 1 CFU in assay [4] (setting [5]); 0 CFU and 506 CFU and 146 CFU and 3272 CFU in assay [4] (setting [6]); 1 CFU and 53 CFU and 17 CFU and 124 CFU in assay [4] (setting [7]); 0 CFU and 29 CFU and 285 CFU and 3996 CFU in assay [4] (setting [8]); 0 CFU (3×) and 10 CFU in assay [4] (setting [9]); 0 CFU and 126 CFU and 5 CFU and 3589 CFU in assay [4] (setting [10]). For the same molecule, the “s. aureus Average” value was 1 CFU and 206 CFU and 4 CFU and 12 CFU in assay [4] (setting [11]); 1 CFU and 94 CFU and 257 CFU and 4373 CFU in assay [4] (setting [12]); 1 CFU and 868 CFU and 28 CFU and 0 CFU in assay [4] (setting [13]); 1 CFU and 586 CFU and 52 CFU and 3493 CFU in assay [4] (setting [14]).
As for `OO` [H2O2, hydrogen peroxide], in assay [3] (human subjects, 3% hydrogen peroxide in the nose for 120 seconds, then laser, day 1 and day 3), the “outcome of the Laser plus H2O2 arm (in words)” value was “may have had some transient benefit in some of the patients, but no obvious long-term efficacy”.
